Laboratory results taken from patent US20240366633A1, “METHODS FOR TREATMENT OF OPIOID USE DISORDER WITH CANNABINOIDS” (ANANDA SCIENTIFIC, INC, priority 2021, published 2024).

Key:
[1] = Chemical characteristics of Composition A′, concentrated and diluted forms; type: physicochemical
Protocol: Several tests were conducted to determine the chemical characteristics of composition Composition A′, both in concentrated and diluted forms. […] All liquid nanodomain droplets range in size from 5 to 20 nm. The pH of both the concentrate and diluted formulations is between 6.0 and 7.5.

[2] = target: CB2 receptors (Homo sapiens, UniProt P34972); conditions: cited from earlier work
[3] = rat, 120 mg/kg dose; cited from earlier work
[4] = healthy volunteers and subjects with various medical conditions, 10 mg to 6000 mg, single and multiple doses; cited from earlier work

Chain of CB2 receptors (P34972 whole entry): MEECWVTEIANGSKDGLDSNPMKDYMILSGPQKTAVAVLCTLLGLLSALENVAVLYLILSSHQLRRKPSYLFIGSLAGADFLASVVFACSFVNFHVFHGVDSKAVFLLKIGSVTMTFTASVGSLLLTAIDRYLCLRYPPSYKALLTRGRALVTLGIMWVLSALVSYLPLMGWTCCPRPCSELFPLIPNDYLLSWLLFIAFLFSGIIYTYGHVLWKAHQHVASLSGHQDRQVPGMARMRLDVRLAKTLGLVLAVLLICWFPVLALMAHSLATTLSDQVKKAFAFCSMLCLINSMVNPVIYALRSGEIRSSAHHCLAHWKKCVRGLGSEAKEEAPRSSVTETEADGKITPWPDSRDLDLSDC

## C=C(C)[C@@H]1CCC(C)=C[C@H]1c1c(O)cc(CCCCC)cc1O [CBD, 2-(1R,6R)-3-methyl-6-prop-1-en-2-ylcyclohex-2-en-1-yl-5-pentylbenzene-1,3-diol]
[1]
  Log P: about 6
[1]; both concentrated and diluted forms
  Association of CBD with formulation phases during storage: remained associated with the surfactant and lipid phases
[2]
  Affinity for CB2 receptors: low affinity
[3]
  T1/2: 4 to 5 h
[4]
  Safety: safe
